{"source": "patent US9452986B2", "about": "“6-heteroaryloxy- or 6-aryloxy-quinoline-2-carboxamides and method of use” (AbbVie Inc., priority 2014, dated 2016)", "data": [{"target": "recombinant human Nav1.7 (Homo sapiens (Human), UniProt Q15858)", "sequence (Q15858 whole entry)": "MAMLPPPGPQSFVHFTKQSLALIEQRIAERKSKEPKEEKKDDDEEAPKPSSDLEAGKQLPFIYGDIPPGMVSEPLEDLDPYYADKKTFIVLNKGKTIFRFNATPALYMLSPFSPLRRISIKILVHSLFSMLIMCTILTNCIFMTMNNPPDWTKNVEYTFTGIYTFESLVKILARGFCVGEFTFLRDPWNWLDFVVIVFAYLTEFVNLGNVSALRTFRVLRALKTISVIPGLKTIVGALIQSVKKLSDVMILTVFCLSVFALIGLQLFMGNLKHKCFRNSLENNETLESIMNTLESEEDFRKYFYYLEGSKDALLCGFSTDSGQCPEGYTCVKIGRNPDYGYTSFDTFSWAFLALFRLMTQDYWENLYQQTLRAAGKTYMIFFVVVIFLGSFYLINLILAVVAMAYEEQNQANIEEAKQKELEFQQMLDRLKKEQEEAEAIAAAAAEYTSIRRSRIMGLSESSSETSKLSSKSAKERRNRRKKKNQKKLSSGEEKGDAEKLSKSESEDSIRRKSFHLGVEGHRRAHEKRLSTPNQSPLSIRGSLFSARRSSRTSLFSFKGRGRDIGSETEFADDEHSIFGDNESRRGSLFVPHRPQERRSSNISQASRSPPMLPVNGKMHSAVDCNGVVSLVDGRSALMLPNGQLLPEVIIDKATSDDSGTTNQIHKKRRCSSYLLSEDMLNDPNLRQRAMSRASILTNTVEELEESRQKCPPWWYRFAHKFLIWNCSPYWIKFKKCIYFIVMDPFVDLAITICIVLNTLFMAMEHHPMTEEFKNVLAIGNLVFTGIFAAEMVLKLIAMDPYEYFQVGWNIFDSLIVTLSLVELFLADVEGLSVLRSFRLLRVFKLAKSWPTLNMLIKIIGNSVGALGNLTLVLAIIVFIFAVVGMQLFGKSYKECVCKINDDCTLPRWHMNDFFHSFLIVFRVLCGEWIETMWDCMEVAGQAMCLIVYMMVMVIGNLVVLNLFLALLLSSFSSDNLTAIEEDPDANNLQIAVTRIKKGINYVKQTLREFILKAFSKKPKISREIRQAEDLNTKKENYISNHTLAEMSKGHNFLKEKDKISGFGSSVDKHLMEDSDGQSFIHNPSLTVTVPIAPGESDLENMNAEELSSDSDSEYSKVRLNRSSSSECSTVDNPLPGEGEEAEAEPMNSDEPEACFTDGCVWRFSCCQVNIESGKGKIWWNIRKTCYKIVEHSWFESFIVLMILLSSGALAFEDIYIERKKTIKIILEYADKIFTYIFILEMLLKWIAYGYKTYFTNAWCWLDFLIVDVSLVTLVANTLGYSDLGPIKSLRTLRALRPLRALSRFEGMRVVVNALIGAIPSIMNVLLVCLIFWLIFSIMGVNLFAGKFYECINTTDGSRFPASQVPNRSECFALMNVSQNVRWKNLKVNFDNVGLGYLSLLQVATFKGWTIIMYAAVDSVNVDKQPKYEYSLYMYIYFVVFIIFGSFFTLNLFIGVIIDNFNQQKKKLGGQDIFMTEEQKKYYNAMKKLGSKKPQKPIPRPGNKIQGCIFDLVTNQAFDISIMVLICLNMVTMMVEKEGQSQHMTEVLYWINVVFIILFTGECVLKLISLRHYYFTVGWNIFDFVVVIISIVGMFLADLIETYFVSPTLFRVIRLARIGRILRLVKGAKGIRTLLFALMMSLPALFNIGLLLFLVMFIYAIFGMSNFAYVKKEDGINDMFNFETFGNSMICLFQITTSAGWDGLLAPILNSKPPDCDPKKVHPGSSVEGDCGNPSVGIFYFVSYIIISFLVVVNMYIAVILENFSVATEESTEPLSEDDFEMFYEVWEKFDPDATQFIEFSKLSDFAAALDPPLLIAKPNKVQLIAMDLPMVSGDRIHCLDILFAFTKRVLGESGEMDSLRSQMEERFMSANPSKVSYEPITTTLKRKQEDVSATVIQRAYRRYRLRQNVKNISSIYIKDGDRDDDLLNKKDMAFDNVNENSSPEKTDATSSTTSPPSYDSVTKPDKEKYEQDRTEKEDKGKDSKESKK", "assay": "FRET-based membrane potential assay, recombinant human sodium channel Nav1.7", "type": "cell-based", "conditions": "HEK293 cells stably expressing recombinant human Nav1.7; veratridine + scorpion venom depolarization; read-out: FRET-Membrane Potential Nav1.7 IC50", "method": "(§1) FRET-Based Membrane Potential Assays.\n(§2) Recombinant, Human Sodium Channel, Nav1.7.\n(§3) On the day of the assay, medium was removed by aspiration, and cells were washed with assay buffer [HBSS (Invitrogen, Carlsbad, Calif.) containing 20 mM HEPES (Invitrogen, Carlsbad, Calif.)]. […] Cells were incubated for 40 minutes at room temperature in the dark. […] The cells were incubated for 90 minutes at room temperature in the dark. Fluorescence readings were made using a FLIPR®^TETRA (Molecular Devices, Sunnyvale Calif.) equipped with voltage-sensor probe optics. At the start of each experiment the optimal (EC80) concentration of depolarizing agent (veratridine) was determined by testing a dilution curve of assay buffer containing veratridine (Sigma-Aldrich, St. Louis, Mo.) and 1 mg/mL scorpion venom (SVqq, from Leiurus quinquestriatus; Sigma-Aldrich, St. Louis, Mo.). […] Test compounds in the daughter plate were diluted to (˜3×) solutions in assay buffer immediately before assaying. Using the FLIPR®^TETRA, 20 μL of the (3×) compound solutions were first added to the cells, then 20 μL of depolarizing solution (3×EC80 veratridine+SVqq) were added 3 minutes later to activate the channel. […] IC50 values were calculated from curve fits of the ratio data using a four-parameter logistic Hill equation (Accelrys Assay Explorer 3.3 Client, Accelrys, San Diego, Calif.) with percent inhibition plotted against compound concentration.", "units": {"IC50": "nM"}, "values": [{"molecule": "CN(C)C(=O)[C@@H]1CCCN1C(=O)c1ccc2cc(Oc3ccc(C(F)F)cn3)ccc2n1", "note": "[Example 465, 1-[(6-{[5-(difluoromethyl)pyridin-2-yl]oxy}quinolin-2-yl)carbonyl]-N,N-dimethyl-L-prolinamide]", "IC50": "> 20000"}, {"molecule": "O=C(N[C@@H]1CCOC1=O)c1ccc2cc(Oc3ccc(C(F)(F)F)cn3)ccc2n1", "note": "[Example 530, N-[(3R)-2-oxotetrahydrofuran-3-yl]-6-{[5-(trifluoromethyl)pyridin-2-yl]oxy}quinoline-2-carboxamide]", "IC50": 911}, {"molecule": "O=C(c1ccc2cc(Oc3ccc(C(F)(F)F)cn3)ccc2n1)N1CC(n2ccnc2)C1", "note": "[Example 202, [3-(1H-imidazol-1-yl)azetidin-1-yl](6-{[5-(trifluoromethyl)pyridin-2-yl]oxy}quinolin-2-yl)methanone]", "IC50": 911}, {"molecule": "CN(C(=O)c1ccc2cc(Oc3ccc(C(F)(F)F)cn3)ccc2n1)C1CCOCC1", "note": "[Example 411, N-methyl-N-(tetrahydro-2H-pyran-4-yl)-6-{[5-(trifluoromethyl)pyridin-2-yl]oxy}quinoline-2-carboxamide]", "IC50": 14100}, {"molecule": "COC(C)CNC(=O)c1ccc2cc(Oc3ccc(C(F)(F)F)cn3)ccc2n1", "note": "(stereo not shown) [Example 590, N-(2-methoxypropyl)-6-{[5-(trifluoromethyl)pyridin-2-yl]oxy}quinoline-2-carboxamide]", "IC50": 1000}, {"molecule": "N#Cc1ccc(Oc2ccc3nc(C(=O)N[C@H]4CC[C@@H](O)CC4)ccc3c2)cc1", "note": "[Example 133, 6-(4-cyanophenoxy)-N-(cis-4-hydroxycyclohexyl)quinoline-2-carboxamide]", "IC50": 1170}, {"molecule": "O=C(c1ccc2cc(Oc3ccc(C(F)(F)F)cn3)ccc2n1)N1CCN(Cc2cocn2)CC1", "note": "[Example 315, [4-(1,3-oxazol-4-ylmethyl)piperazin-1-yl](6-{[5-(trifluoromethyl)pyridin-2-yl]oxy}quinolin-2-yl)methanone]", "IC50": 6120}, {"molecule": "O=C(c1ccc2cc(Oc3ccc(C(F)(F)F)cn3)ccc2n1)N1CCNCC1C(F)(F)F", "note": "(stereo not shown) [Example 598, [2-(trifluoromethyl)piperazin-1-yl](6-{[5-(trifluoromethyl)pyridin-2-yl]oxy}quinolin-2-yl)methanone]", "IC50": 2980}, {"molecule": "CS(=O)(=O)c1ccc(Oc2ccc3nc(C(=O)N4CCNCC4)ccc3c2)cc1", "note": "[Example 214, {6-[4-(methylsulfonyl)phenoxy]quinolin-2-yl}(piperazin-1-yl)methanone]", "IC50": "> 20000"}, {"molecule": "CS[C@H]1CN(C(=O)c2ccc3cc(Oc4ccc(C(F)(F)F)cn4)ccc3n2)C[C@@H]1O", "note": "[Example 348, [(3S,4S)-3-hydroxy-4-(methylsulfanyl)pyrrolidin-1-yl](6-{[5-(trifluoromethyl)pyridin-2-yl]oxy}quinolin-2-yl)methanone]", "IC50": 3900}, {"molecule": "CC1(C)CCN(C(=O)c2ccc3cc(Oc4ccc(C(F)(F)F)cn4)ccc3n2)C1", "note": "[Example 405, (3,3-dimethylpyrrolidin-1-yl)(6-{[5-(trifluoromethyl)pyridin-2-yl]oxy}quinolin-2-yl)methanone]", "IC50": 1400}, {"molecule": "N#Cc1ccc(Oc2ccc3nc(C(=O)NCCCN4CCCCC4)ccc3c2)cc1", "note": "[Example 100, 6-(4-cyanophenoxy)-N-[3-(piperidin-1-yl)propyl]quinoline-2-carboxamide]", "IC50": 221}, {"molecule": "O=C(NCC1COCCN1Cc1ccccc1)c1ccc2cc(Oc3ccc(C(F)(F)F)cn3)ccc2n1", "note": "(stereo not shown) [Example 361, N-[(4-benzylmorpholin-3-yl)methyl]-6-{[5-(trifluoromethyl)pyridin-2-yl]oxy}quinoline-2-carboxamide]", "IC50": 2880}, {"molecule": "CC(=O)c1ccc(Oc2ccc3nc(C(=O)N4CCNCC4)ccc3c2)nc1", "note": "[Example 226, 1-(6-{[2-(piperazin-1-ylcarbonyl)quinolin-6-yl]oxy}pyridin-3-yl)ethanone]", "IC50": "> 20000"}, {"molecule": "CC1(C)C[C@@H](NC(=O)c2ccc3cc(Oc4ccc(C#N)cc4)ccc3n2)c2cc(F)ccc2O1", "note": "[Example 141, 6-(4-cyanophenoxy)-N-[(4R)-6-fluoro-2,2-dimethyl-3,4-dihydro-2H-chromen-4-yl]quinoline-2-carboxamide]", "IC50": "> 20000"}, {"molecule": "O=C(c1ccc2cc(Oc3ccc(C(F)(F)F)cn3)ccc2n1)N1CCC(F)(F)C(O)C1", "note": "(stereo not shown) [Example 193, (4,4-difluoro-3-hydroxypiperidin-1-yl)(6-{[5-(trifluoromethyl)pyridin-2-yl]oxy}quinolin-2-yl)methanone]", "IC50": 4250}, {"molecule": "CCN(CC)C(=O)CNC(=O)c1ccc2cc(Oc3ccc(C(F)(F)F)nc3)ccc2n1", "note": "[Example 517, N-[2-(diethylamino)-2-oxoethyl]-6-{[6-(trifluoromethyl)pyridin-3-yl]oxy}quinoline-2-carboxamide]", "IC50": 370}, {"molecule": "O=C(c1ccc2cc(Oc3ccc(C(F)(F)F)cn3)ccc2n1)N1CCC(F)(F)C1", "note": "[Example 404, (3,3-difluoropyrrolidin-1-yl)(6-{[5-(trifluoromethyl)pyridin-2-yl]oxy}quinolin-2-yl)methanone]", "IC50": 1950}, {"molecule": "N#Cc1ccc(Oc2ccc3nc(C(=O)N[C@@H]4CCOC4=O)ccc3c2)cc1", "note": "[Example 113, 6-(4-cyanophenoxy)-N-[(3R)-2-oxotetrahydrofuran-3-yl]quinoline-2-carboxamide]", "IC50": 741}, {"molecule": "O=C(c1ccc2cc(Oc3ccc(C(F)(F)F)cn3)ccc2n1)N1CCC12CNC2", "note": "[Example 279, 1,6-diazaspiro[3.3]hept-1-yl(6-{[5-(trifluoromethyl)pyridin-2-yl]oxy}quinolin-2-yl)methanone]", "IC50": 5680}, {"molecule": "CS(=O)(=O)C1CCN(C(=O)c2ccc3cc(Oc4ccc(C(F)(F)F)cn4)ccc3n2)C1", "note": "(stereo not shown) [Example 287, [3-(methylsulfonyl)pyrrolidin-1-yl](6-{[5-(trifluoromethyl)pyridin-2-yl]oxy}quinolin-2-yl)methanone]", "IC50": 2810}, {"molecule": "O=C(c1ccc2cc(Oc3ccc(C(F)(F)F)cn3)ccc2n1)N1CCOC(CO)C1", "note": "(stereo not shown) [Example 339, [2-(hydroxymethyl)morpholin-4-yl](6-{[5-(trifluoromethyl)pyridin-2-yl]oxy}quinolin-2-yl)methanone]", "IC50": 14400}, {"molecule": "CS(=O)(=O)C1CCN(C(=O)c2ccc3cc(Oc4ccc(C(F)(F)F)cn4)ccc3n2)CC1", "note": "[Example 254, [4-(methylsulfonyl)piperidin-1-yl](6-{[5-(trifluoromethyl)pyridin-2-yl]oxy}quinolin-2-yl)methanone]", "IC50": 13800}, {"molecule": "O=C(NCCF)c1ccc2cc(Oc3ccc(C(F)(F)F)cn3)ccc2n1", "note": "[Example 346, N-(2-fluoroethyl)-6-{[5-(trifluoromethyl)pyridin-2-yl]oxy}quinoline-2-carboxamide]", "IC50": 2500}, {"molecule": "CC1(CN2CCN(C(=O)c3ccc4cc(Oc5ccc(C(F)(F)F)cn5)ccc4n3)CC2)COC1", "note": "[Example 286, {4-[(3-methyloxetan-3-yl)methyl]piperazin-1-yl}(6-{[5-(trifluoromethyl)pyridin-2-yl]oxy}quinolin-2-yl)methanone]", "IC50": 11400}]}, {"target": "recombinant human Nav1.7 (Homo sapiens (Human), UniProt Q15858)", "assay": "FRET-based membrane potential assay, recombinant human sodium channel Nav1.7", "type": "cell-based", "conditions": "read-out: FRET-Membrane Potential Nav1.7 IC50", "method": "as §1, §2, §3", "units": {"IC50": "nM"}, "values": [{"molecule": "Cc1noc(C2CCCN(C(=O)c3ccc4cc(Oc5ccccn5)ccc4n3)C2)n1", "note": "(stereo not shown) [Example 78, [3-(3-methyl-1,2,4-oxadiazol-5-yl)piperidin-1-yl][6-(pyridin-2-yloxy)quinolin-2-yl]methanone]", "IC50": "> 20000"}, {"molecule": "CCN(CC)C(=O)CNC(=O)c1ccc2cc(Oc3ccc(C(F)(F)F)cn3)ccc2n1", "note": "[Example 446, N-[2-(diethylamino)-2-oxoethyl]-6-{[5-(trifluoromethyl)pyridin-2-yl]oxy}quinoline-2-carboxamide]", "IC50": 166}, {"molecule": "N#Cc1ccc(Oc2ccc3nc(C(=O)N4CCNCC4)ccc3c2)cc1", "note": "[Example 112, 4-{[2-(piperazin-1-ylcarbonyl)quinolin-6-yl]oxy}benzonitrile]", "IC50": 1480}, {"molecule": "COC[C@@H]1CN(C(=O)c2ccc3cc(Oc4ccc(C(F)(F)F)cn4)ccc3n2)CCN1", "note": "[Example 593, [(3S)-3-(methoxymethyl)piperazin-1-yl](6-{[5-(trifluoromethyl)pyridin-2-yl]oxy}quinolin-2-yl)methanone]", "IC50": 238}, {"molecule": "O=C(c1ccc2cc(Oc3cccc(C(F)(F)F)n3)ccc2n1)N1CCNCC1", "note": "[Example 153, piperazin-1-yl(6-{[6-(trifluoromethyl)pyridin-2-yl]oxy}quinolin-2-yl)methanone]", "IC50": 3300}, {"molecule": "O=C(NC1CCC(F)(F)C1)c1ccc2cc(Oc3ccc(C(F)F)cn3)ccc2n1", "note": "(stereo not shown) [Example 486, N-(3,3-difluorocyclopentyl)-6-{[5-(difluoromethyl)pyridin-2-yl]oxy}quinoline-2-carboxamide]", "IC50": 2540}, {"molecule": "CC(C)C(O)CNC(=O)c1ccc2cc(Oc3ccc(C#N)cc3)ccc2n1", "note": "(stereo not shown) [Example 135, 6-(4-cyanophenoxy)-N-(2-hydroxy-3-methylbutyl)quinoline-2-carboxamide]", "IC50": 688}, {"molecule": "O=C(c1ccc2cc(Oc3ncc(C(F)(F)F)cn3)ccc2n1)N1CCNCC1", "note": "[Example 247, piperazin-1-yl(6-{[5-(trifluoromethyl)pyrimidin-2-yl]oxy}quinolin-2-yl)methanone]", "IC50": 13300}, {"molecule": "O=C(c1ccc2cc(Oc3ccc(C(F)(F)F)cn3)ccc2n1)N1CC(N2CC[C@H](F)C2)C1", "note": "[Example 586, {3-[(3S)-3-fluoropyrrolidin-1-yl]azetidin-1-yl}(6-{[5-(trifluoromethyl)pyridin-2-yl]oxy}quinolin-2-yl)methanone]", "IC50": 1800}]}]}
